Data published in patent publication US12427192B2, “Water soluble adjuvant and composition containing same” (Sumitomo Pharma Co., Ltd., priority 2019, dated 2025).

Key:
[1] = system: HLA-A*02:01 transgenic mouse; assay: Test 11: in vivo adjuvant activity, cocktail vaccine f (emulsified composition 1), IFNγ ELISPOT; details: added to cocktail vaccine f (emulsified composition 1); 0.04 nmol or 0.4 nmol per body, twice; FIG. 10 and 11
Procedure: (§1) Evaluation of In Vivo Adjuvant Activity in HLA-A*02:01 Transgenic Mouse
The in vivo adjuvant activity of the compound of Example 1 was evaluated in the following procedure. To a cocktail vaccine (emulsified composition 1) comprising Compound of formula 4 prepared in Reference example 8 and Peptide SEQ ID No. 3 prepared in Reference example 3 (hereinafter, referred to as “cocktail vaccine f”) was added the compound prepared in Example 1 to prepare a vaccine. The vaccine was administered to a HLA-A*02:01 transgenic mouse, and the adjuvant activity of the vaccine was evaluated by the method of testing antigen-specific CTL induction.
For example, the above emulsified composition 1 was prepared as follows. 95.8% (w/w) of soybean oil, 3% (w/w) of PEG-30 dipolyhydroxy stearate, and 1.2% (w/w) of polysorbate 80 were mixed to prepare an oil-phase mixture. The amount of the preparation was adjusted as appropriate. Compound of formula 4 and Peptide SEQ ID No. 3 were mixed with pH 2.5 buffer (10 mM tartaric acid, 10% trehalose) to adjust each concentration to 3 mg/mL and 2.25 mg/mL, respectively. The prepared peptide dilution was mixed with an equal volume of the oil-phase mixture to give an emulsified product, cocktail vaccine f. […] Then, after removal of the supernatant from the wells, stained spots on the ELISPOT plate were counted.

[2] = system: HLA-A*02:01 transgenic mouse; assay: Test 9: in vivo adjuvant activity, cocktail vaccine b, IFNγ ELISPOT; details: added to cocktail vaccine b; Peptide SEQ ID No. 1 or SEQ ID No. 4; 0.4 nmol per body, twice; FIG. 6 and 7
Procedure: as §1
The in vivo adjuvant activity of the compounds prepared in Examples 8, 9, and 10 and the compound prepared in Reference example 12 was evaluated in the following procedure. To cocktail vaccine b comprising Compound of formula 4 prepared in Reference example 8 and Peptide SEQ ID No. 3 prepared in Reference example 3 with Montanide ISA51 VG was added the compound prepared in Example 8, 9, or 10, or the compound prepared in Reference example 12 to prepare each vaccine. The vaccine was administered to a HLA-A*02:01 transgenic mouse, and the adjuvant activity of each vaccine was evaluated by the method of testing antigen-specific CTL induction.
Specifically, Compound of formula 4 and Peptide SEQ ID No. 3 were dissolved in DMSO, and then diluted with water for injection to concentrations of Compound of formula 4 of 3 mg/mL and Peptide SEQ ID No. 3 of 2.25 mg/mL. The diluted peptide solution was mixed and emulsified with an equal volume of Montanide ISA 51 VG to prepare cocktail vaccine b. Cocktail vaccine b was injected to mice intradermally at the tail base area in an amount for administering 300 μg of Compound of formula 4 per body and 225 μg of Peptide SEQ ID No. 3 per body. Or, in the step of preparing cocktail vaccine b, the compound prepared in Example 8, 9, or 10, or the compound prepared in Reference example 12 was added to the diluted peptide solution to prepare a vaccine, and the prepared vaccine was injected to mice intradermally at the tail base area in an amount for administering 300 μg of Compound of formula 4 per body, 225 μg of Peptide SEQ ID No. 3 per body, and 0.4 nmol of the compound prepared in Example 8, 9, or 10, or the compound prepared in Reference example 12 per body. The administrations were done twice, which had one week interval. One week after the final administration, the mice were sacrificed with CO2 gas. Splenocytes were harvested from spleens removed from the mice. Like Test 4, Peptide (SEQ ID No. 1 or SEQ ID No. 4) was added to the splenocyte-containing ELISPOT plate at a final concentration of 10 μg/ml, and the plate was incubated overnight at 37° C. under an atmosphere of 5% CO2 to re-stimulate the peptide in vitro. Then, after removal of the supernatant from the wells, stained spots on the ELISPOT plate were counted.

Compound	CTL counts responsive to Peptide SEQ ID No. 1 or SEQ ID No. 4 compared with adding no compound [1]	CTL counts responsive to the peptide compared with adding no compound [2]
CCCCCNc1nc(N)nc(C)c1Cc1ccc(CN(C)CCOCCOCCOCCOCCO)cc1OC [Example 1, 1-(4-{[2-amino-4-methyl-6-(pentylamino)pyrimidin-5-yl]methyl}-3-methoxyphenyl)-2-methyl-5,8,11,14-tetraoxa-2-azahexadecan-16-ol·trifluoroacetate]	more	–
CCCCCNc1nc(N)nc(C)c1Cc1ccc(CNC)cc1OC [Reference example 12, 5-({2-methoxy-4-[(methylamino)methyl]phenyl}methyl)-6-methyl-N^4-pentylpyrimidine-2,4-diamine, reference compound]	–	more
